Here are results for one compound from ChEMBL document CHEMBL3997765 (Medchemcomm, 2016).

Experiment [1] concerns the target Tyrosine-protein kinase ABL1 (Homo sapiens) (UniProt P00519). Description: Inhibition of recombinant human His-tagged ABL1 cytoplasmic domain expressed in baculovirus expression system at 10 uM by Z'-LYTE assay relative to control.
Experiment [2] addresses Cyclin-dependent kinase 1/cyclin B1 (Homo sapiens) (UniProt P06493+P14635). The experiment is described as follows: Inhibition of full length recombinant human His-tagged CDK1/Cyclin B expressed in baculovirus expression system at 10 uM by Z'-LYTE assay relative to control.
Experiment [3] concerns the target Ephrin type-A receptor 2 (Homo sapiens) (UniProt P29317). Description: Inhibition of recombinant human GST-tagged EPHA2 cytoplasmic domain (560 to 976 residues) expressed in baculovirus expression system at 10 uM by Z'-LYTE assay relative to control.
For experiment [4], the target named is Receptor-type tyrosine-protein kinase FLT3 (Homo sapiens) (UniProt P36888). The experiment is described as follows: Inhibition of recombinant human His-tagged FLT3 cytoplasmic domain (564 to 958 residues) expressed in baculovirus expression system at 10 uM by Z'-LYTE assay relative to control.
Chain of Receptor-type tyrosine-protein kinase FLT3 (Homo sapiens) (P36888 whole entry, the tested form may be a part): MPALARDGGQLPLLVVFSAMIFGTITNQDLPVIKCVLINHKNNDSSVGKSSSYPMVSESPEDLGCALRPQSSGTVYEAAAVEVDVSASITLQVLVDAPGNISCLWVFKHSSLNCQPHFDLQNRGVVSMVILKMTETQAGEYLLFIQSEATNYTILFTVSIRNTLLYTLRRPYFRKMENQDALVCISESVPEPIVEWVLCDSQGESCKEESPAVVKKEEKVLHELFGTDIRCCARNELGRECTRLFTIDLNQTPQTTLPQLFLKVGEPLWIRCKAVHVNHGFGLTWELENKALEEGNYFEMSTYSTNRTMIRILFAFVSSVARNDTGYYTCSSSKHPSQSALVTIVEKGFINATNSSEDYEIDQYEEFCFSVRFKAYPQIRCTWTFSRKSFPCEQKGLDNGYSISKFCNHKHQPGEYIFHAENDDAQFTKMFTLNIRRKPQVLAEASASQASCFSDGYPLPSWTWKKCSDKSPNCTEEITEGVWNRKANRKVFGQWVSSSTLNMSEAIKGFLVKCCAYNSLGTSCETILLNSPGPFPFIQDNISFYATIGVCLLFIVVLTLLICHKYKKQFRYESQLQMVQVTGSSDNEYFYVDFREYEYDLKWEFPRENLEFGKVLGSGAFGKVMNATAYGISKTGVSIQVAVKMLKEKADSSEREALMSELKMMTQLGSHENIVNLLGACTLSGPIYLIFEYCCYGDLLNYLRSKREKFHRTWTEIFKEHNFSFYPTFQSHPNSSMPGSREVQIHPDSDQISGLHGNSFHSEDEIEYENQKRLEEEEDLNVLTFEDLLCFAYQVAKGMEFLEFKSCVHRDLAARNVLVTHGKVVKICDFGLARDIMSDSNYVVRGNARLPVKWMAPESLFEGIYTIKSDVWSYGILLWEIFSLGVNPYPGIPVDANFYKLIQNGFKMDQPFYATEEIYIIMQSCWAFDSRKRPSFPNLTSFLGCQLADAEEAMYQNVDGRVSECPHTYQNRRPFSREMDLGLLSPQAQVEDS
In experiment [5] the target is Interleukin-1 receptor-associated kinase 4 (Homo sapiens) (UniProt Q9NWZ3). Description: Inhibition of full length recombinant human His-tagged IRAK4 expressed in baculovirus expression system at 10 uM by Z'-LYTE assay relative to control.
Chain of Interleukin-1 receptor-associated kinase 4 (Homo sapiens) (Q9NWZ3 whole entry, the tested form may be a part): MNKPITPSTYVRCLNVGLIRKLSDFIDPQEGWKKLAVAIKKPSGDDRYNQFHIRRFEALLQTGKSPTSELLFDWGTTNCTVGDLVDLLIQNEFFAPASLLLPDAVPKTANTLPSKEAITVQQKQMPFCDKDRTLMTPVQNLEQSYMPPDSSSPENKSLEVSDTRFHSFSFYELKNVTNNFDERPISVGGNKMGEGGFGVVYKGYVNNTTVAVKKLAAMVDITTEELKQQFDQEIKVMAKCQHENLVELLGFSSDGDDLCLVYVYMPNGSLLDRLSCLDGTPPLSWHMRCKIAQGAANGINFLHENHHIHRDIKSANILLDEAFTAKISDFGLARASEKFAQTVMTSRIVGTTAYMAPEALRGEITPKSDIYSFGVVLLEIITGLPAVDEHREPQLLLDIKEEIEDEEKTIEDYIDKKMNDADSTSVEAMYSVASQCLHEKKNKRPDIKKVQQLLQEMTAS
Experiment [6] has as its target Tyrosine-protein kinase JAK3 (Homo sapiens) (UniProt P52333). Description: Inhibition of recombinant human GST-tagged JAK3 catalytic domain (781 to 1124 residues) expressed in baculovirus expression system at 10 uM by Z'-LYTE assay relative to control.
In experiment [7] the target is Mast/stem cell growth factor receptor Kit (Homo sapiens) (UniProt P10721). The experiment is described as follows: Inhibition of KIT (unknown origin) at 10 uM by Z'-LYTE assay relative to control.
Experiment [8] has as its target MAP kinase-activated protein kinase 2 (Homo sapiens) (UniProt P49137). The experiment is described as follows: Inhibition of full length recombinant human His-tagged MAPKAPK2 expressed in Escherichia coli at 10 uM by Z'-LYTE assay relative to control.
Experiment [9] addresses Platelet-derived growth factor receptor beta (Homo sapiens) (UniProt P09619). The experiment is described as follows: Inhibition of recombinant human His-tagged PDGFRbeta cytoplasmic domain (558 to 1106 residues) expressed in baculovirus expression system at 10 uM by Z'-LYTE assay relative to control.
Experiment [10] concerns the target Serine/threonine-protein kinase pim-1 (Homo sapiens) (UniProt P11309). The experiment is described as follows: Inhibition of full length recombinant human His-tagged PIM1 expressed in baculovirus expression system at 10 uM relative to control.
In experiment [11] the target is Protein kinase C beta type (Homo sapiens) (UniProt P05771). The experiment is described as follows: Inhibition of full length recombinant human PKCbeta1 expressed in baculovirus expression system at 10 uM relative to control.
For experiment [12], the target named is Aurora kinase A (Homo sapiens) (UniProt O14965). The experiment is described as follows: Inhibition of full length recombinant human His-tagged Aurora A expressed in baculovirus expression system at 10 uM by Z'-LYTE assay relative to control.
Chain of Aurora kinase A (Homo sapiens) (O14965 whole entry, the tested form may be a part): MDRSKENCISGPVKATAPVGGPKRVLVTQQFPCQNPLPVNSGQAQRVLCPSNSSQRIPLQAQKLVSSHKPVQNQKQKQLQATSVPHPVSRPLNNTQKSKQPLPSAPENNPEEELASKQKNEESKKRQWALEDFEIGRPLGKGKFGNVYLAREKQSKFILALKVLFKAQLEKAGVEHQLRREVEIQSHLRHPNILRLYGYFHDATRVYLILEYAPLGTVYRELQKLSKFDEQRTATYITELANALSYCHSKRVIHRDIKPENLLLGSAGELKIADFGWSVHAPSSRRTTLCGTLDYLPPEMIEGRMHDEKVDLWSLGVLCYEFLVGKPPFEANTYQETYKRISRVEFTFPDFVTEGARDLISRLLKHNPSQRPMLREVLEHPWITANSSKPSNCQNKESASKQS
Experiment [13] deals with Angiopoietin-1 receptor (Homo sapiens) (UniProt Q02763). Description: Inhibition of recombinant human GST-tagged TIE2 cytoplasmic domain (817 to 1101 residues) expressed in baculovirus expression system at 10 uM by Z'-LYTE assay relative to control.
Chain of Angiopoietin-1 receptor (Homo sapiens) (Q02763 whole entry, the tested form may be a part): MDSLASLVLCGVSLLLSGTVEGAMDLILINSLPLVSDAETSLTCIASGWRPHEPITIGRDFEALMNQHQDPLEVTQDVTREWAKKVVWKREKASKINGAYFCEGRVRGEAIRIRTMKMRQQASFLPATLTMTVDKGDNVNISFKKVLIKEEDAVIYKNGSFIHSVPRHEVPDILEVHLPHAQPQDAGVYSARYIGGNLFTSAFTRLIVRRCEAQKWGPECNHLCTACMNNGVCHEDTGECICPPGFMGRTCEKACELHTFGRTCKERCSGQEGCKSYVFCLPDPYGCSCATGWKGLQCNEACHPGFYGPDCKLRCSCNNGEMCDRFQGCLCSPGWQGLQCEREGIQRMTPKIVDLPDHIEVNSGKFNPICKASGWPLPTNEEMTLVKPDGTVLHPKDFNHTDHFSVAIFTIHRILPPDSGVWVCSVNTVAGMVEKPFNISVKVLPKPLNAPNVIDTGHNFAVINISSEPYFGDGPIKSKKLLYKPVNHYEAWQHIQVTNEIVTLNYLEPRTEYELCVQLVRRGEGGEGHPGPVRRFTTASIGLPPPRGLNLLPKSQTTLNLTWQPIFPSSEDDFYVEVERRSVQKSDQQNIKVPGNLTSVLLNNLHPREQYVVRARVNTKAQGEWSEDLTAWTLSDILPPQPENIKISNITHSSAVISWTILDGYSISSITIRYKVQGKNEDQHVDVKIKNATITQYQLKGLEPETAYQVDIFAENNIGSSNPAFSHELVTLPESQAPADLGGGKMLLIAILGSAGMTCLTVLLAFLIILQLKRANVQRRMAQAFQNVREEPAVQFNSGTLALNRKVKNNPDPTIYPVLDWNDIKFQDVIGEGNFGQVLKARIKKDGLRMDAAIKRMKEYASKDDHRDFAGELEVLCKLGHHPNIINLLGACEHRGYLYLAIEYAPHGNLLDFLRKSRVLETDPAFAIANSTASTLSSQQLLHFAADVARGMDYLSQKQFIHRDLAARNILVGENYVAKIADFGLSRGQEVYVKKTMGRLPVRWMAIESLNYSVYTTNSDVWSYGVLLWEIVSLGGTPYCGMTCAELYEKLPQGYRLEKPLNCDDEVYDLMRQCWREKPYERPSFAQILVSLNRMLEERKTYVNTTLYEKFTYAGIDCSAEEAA

A word on the inhibition: it is the change of the read-out against control, counted positive when it falls.

SMILES strings stand for the structures.

Chain of Cyclin-dependent kinase 1/cyclin B1 (Homo sapiens) (P06493 whole entry, looked up, the tested form may be a part): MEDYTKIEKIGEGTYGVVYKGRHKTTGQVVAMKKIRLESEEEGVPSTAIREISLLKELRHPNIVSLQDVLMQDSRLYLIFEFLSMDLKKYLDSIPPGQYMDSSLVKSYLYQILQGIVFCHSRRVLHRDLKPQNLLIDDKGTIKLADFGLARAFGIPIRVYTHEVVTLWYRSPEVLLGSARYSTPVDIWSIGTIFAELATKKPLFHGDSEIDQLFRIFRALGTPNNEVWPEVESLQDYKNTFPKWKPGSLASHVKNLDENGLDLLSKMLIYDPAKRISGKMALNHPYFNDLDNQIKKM
Chain of Cyclin-dependent kinase 1/cyclin B1 (Homo sapiens) (P14635 whole entry, looked up, the tested form may be a part): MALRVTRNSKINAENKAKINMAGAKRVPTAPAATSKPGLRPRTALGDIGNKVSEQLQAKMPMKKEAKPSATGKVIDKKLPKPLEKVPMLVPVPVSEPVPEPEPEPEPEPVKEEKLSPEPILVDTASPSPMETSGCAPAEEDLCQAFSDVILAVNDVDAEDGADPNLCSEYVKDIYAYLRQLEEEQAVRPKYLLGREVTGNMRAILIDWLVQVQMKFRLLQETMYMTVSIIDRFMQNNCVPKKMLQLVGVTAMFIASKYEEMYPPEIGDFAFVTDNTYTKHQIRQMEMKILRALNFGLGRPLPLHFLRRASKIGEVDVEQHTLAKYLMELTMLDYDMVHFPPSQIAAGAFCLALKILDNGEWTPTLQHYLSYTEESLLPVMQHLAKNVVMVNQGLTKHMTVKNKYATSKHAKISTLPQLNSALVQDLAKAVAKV
Chain of Platelet-derived growth factor receptor beta (Homo sapiens) (P09619 whole entry, the tested form may be a part): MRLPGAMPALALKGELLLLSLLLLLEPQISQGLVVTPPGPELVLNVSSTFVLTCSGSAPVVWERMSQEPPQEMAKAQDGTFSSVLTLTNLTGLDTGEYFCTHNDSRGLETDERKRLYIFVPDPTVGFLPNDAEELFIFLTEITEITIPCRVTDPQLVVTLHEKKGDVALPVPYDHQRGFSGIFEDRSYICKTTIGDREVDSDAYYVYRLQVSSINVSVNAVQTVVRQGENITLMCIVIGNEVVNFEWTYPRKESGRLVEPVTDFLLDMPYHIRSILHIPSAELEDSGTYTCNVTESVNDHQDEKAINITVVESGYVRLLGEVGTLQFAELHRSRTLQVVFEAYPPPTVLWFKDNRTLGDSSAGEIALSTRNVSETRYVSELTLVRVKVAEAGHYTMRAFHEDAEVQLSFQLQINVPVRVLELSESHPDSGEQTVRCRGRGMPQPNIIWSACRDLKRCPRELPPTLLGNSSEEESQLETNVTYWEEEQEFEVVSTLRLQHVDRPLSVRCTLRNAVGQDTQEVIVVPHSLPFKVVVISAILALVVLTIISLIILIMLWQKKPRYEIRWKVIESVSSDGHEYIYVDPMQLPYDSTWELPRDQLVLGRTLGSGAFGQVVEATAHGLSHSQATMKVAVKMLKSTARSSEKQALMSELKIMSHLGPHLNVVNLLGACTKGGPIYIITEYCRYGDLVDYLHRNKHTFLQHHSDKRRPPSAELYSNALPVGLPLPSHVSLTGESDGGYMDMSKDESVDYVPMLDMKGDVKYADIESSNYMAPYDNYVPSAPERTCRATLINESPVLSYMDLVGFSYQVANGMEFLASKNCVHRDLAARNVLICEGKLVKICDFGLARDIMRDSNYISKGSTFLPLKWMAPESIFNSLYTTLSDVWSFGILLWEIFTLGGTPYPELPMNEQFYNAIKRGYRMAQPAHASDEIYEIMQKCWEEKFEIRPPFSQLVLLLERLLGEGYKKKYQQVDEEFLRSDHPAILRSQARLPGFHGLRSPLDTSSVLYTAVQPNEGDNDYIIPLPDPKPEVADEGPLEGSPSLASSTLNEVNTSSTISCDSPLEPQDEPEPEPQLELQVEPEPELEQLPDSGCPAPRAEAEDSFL

Turning to `CC1=Nc2c(Sc3ccccc3)ncnc2Sc2ccccc21`, the inhibition in experiment [1] is 12%; in experiment [2] it was 8%; in experiment [3], 9%; in experiment [4] it was 6%; in experiment [5], 3%; in experiment [6], -1%. Moreover, the inhibition is 3% in experiment [7]; 8% in [8]; -1% in experiment [9]; 3% in experiment [10]; 1% in experiment [11]; 6% in experiment [12]. Further, the inhibition in [13] was 11%.
